System: 292921-168-R-J2-PDC KRAS tumor spheroid viability
Experiment: Anticancer human tumor 292921-168-R-J2-PDC patient-derived pancreatic carcinoma cell line growth inhibition [KRAS2]
Conditions: spheroids with HUVEC and MSC; for IC50: curve of first compound; for viability, T/C: stronger effect = lower value
How it was run: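 KRAS-mutant tumor cells were grown as spheroids with HUVEC endothelial cells and human MSCs as stroma. Targeted agents were tested alone and with KRAS pathway inhibitors. Doses started at or near clinical Cmax, or 10 microM, descending half-log.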

[1] = second compound 0.1 µM, first compound 0.0316 µM
[2] = second compound 0.1 µM, first compound 0.1 µM
[3] = second compound 0.1 µM, first compound 0.316 µM
[4] = second compound 0.1 µM, first compound 1 µM
[5] = second compound 0.1 µM, first compound 3.16 µM
[6] = second compound 0.1 µM, first compound 10 µM
[7] = second compound 0.316 µM, first compound 0.0316 µM
[8] = second compound 0.316 µM, first compound 0.1 µM
[9] = second compound 0.316 µM, first compound 0.316 µM
[10] = second compound 0.316 µM, first compound 1 µM
[11] = second compound 0.316 µM, first compound 3.16 µM
[12] = second compound 0.316 µM, first compound 10 µM
[13] = second compound 1 µM, first compound 0.0316 µM
[14] = second compound 1 µM, first compound 0.1 µM
[15] = second compound 1 µM, first compound 0.316 µM
[16] = second compound 1 µM, first compound 1 µM
[17] = second compound 1 µM, first compound 3.16 µM
[18] = second compound 1 µM, first compound 10 µM
[19] = second compound 3.16 µM, first compound 0.0316 µM
[20] = second compound 3.16 µM, first compound 0.1 µM
[21] = second compound 3.16 µM, first compound 0.316 µM
[22] = second compound 3.16 µM, first compound 1 µM
[23] = second compound 3.16 µM, first compound 3.16 µM
[24] = second compound 3.16 µM, first compound 10 µM
[25] = second compound 10 µM, first compound 0.0316 µM
[26] = second compound 10 µM, first compound 0.1 µM
[27] = second compound 10 µM, first compound 0.316 µM
[28] = second compound 10 µM, first compound 1 µM
[29] = second compound 10 µM, first compound 3.16 µM
[30] = second compound 10 µM, first compound 10 µM
[31] = second compound 0.1 µM, first compound 0.01 µM
[32] = second compound 0.316 µM, first compound 0.01 µM
[33] = second compound 1 µM, first compound 0.01 µM
[34] = second compound 3.16 µM, first compound 0.01 µM
[35] = second compound 10 µM, first compound 0.01 µM
[36] = second compound 0.1 µM, first compound 0.00316 µM
[37] = second compound 0.316 µM, first compound 0.00316 µM
[38] = second compound 1 µM, first compound 0.00316 µM
[39] = second compound 3.16 µM, first compound 0.00316 µM
[40] = second compound 10 µM, first compound 0.00316 µM
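Also: drug exposure lasted seven days after spheroids formed for three days.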
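For viability, T/C in this document: percent of DMSO vehicle control viability which is 100%.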

CC(C)NCC(C(=O)N1CCN(c2ncnc3c2C(C)CC3O)CC1)c1ccc(Cl)cc1 (stereo not given) + CNCc1ccccc1-c1csc(C(C)Nc2nc(C)nc3cc(OC)c(OC)cc23)c1
IC50 (second compound 0.1 µM): 7140 nM | IC50 (second compound 0.316 µM): 5150 nM | IC50 (second compound 1 µM): 597 nM | IC50 (second compound 3.16 µM): < 31.6 nM | IC50 (second compound 10 µM): < 31.6 nM | viability, T/C [1]: 80.5% | viability, T/C [2]: 88.9% | viability, T/C [3]: 74.1% | viability, T/C [4]: 77.3% | viability, T/C [5]: 67.8% | viability, T/C [6]: 42.5% | viability, T/C [7]: 76.9% | viability, T/C [8]: 70.6% | viability, T/C [9]: 65.1% | viability, T/C [10]: 65.4% | viability, T/C [11]: 62.6% | viability, T/C [12]: 35.6% | viability, T/C [13]: 59.9% | viability, T/C [14]: 55.4% | viability, T/C [15]: 49.5% | viability, T/C [16]: 46.7% | viability, T/C [17]: 42.2% | viability, T/C [18]: 22.9% | viability, T/C [19]: 0.1% | viability, T/C [20]: 0.09% | viability, T/C [21]: 0.37% | viability, T/C [22]: 0.1% | viability, T/C [23]: 0.07% | viability, T/C [24]: 0.36% | viability, T/C [25]: 0.09% | viability, T/C [26]: 0.08% | viability, T/C [27]: 0.25% | viability, T/C [28]: 0.36% | viability, T/C [29]: 0.09% | viability, T/C [30]: 0.3%

CC1(C)CCC(CN2CCN(c3ccc(C(=O)NS(=O)(=O)c4ccc(NCC5CCOCC5)c([N+](=O)[O-])c4)c(Oc4cnc5[nH]ccc5c4)c3)CC2)=C(c2ccc(Cl)cc2)C1 + CNCc1ccccc1-c1csc(C(C)Nc2nc(C)nc3cc(OC)c(OC)cc23)c1
IC50 (second compound 0.1 µM): 1950 nM | IC50 (second compound 0.316 µM): 2130 nM | IC50 (second compound 1 µM): 1380 nM | IC50 (second compound 3.16 µM): < 31.6 nM | IC50 (second compound 10 µM): < 31.6 nM | viability, T/C [1]: 94.3% | viability, T/C [2]: 93.4% | viability, T/C [3]: 102% | viability, T/C [4]: 88.4% | viability, T/C [5]: 22% | viability, T/C [6]: 8.05% | viability, T/C [7]: 87.7% | viability, T/C [8]: 86.9% | viability, T/C [9]: 94.4% | viability, T/C [10]: 86.6% | viability, T/C [11]: 30.8% | viability, T/C [12]: 6.47% | viability, T/C [13]: 60.5% | viability, T/C [14]: 62.5% | viability, T/C [15]: 68.2% | viability, T/C [16]: 66.6% | viability, T/C [17]: 13% | viability, T/C [18]: 5.94% | viability, T/C [19]: 0.12% | viability, T/C [20]: 1.9% | viability, T/C [21]: 0.25% | viability, T/C [22]: 0.79% | viability, T/C [23]: 0.4% | viability, T/C [24]: 0.64% | viability, T/C [25]: 0.08% | viability, T/C [26]: 0.08% | viability, T/C [27]: 0.23% | viability, T/C [28]: 0.08% | viability, T/C [29]: 0.09% | viability, T/C [30]: 0.28%

CC1COCCN1c1cc(-c2ccnn2C)c2ccnc(-c3ccn[nH]3)c2n1 (stereo not given) + CNCc1ccccc1-c1csc(C(C)Nc2nc(C)nc3cc(OC)c(OC)cc23)c1
IC50 (second compound 0.1 µM): < 10 nM | IC50 (second compound 0.316 µM): < 10 nM | IC50 (second compound 1 µM): < 10 nM | IC50 (second compound 3.16 µM): < 10 nM | IC50 (second compound 10 µM): < 10 nM | viability, T/C [31]: 39.3% | viability, T/C [1]: 21% | viability, T/C [2]: 15.5% | viability, T/C [3]: 13.1% | viability, T/C [4]: 15.2% | viability, T/C [5]: 16.1% | viability, T/C [32]: 34.4% | viability, T/C [7]: 19.7% | viability, T/C [8]: 12.7% | viability, T/C [9]: 12.9% | viability, T/C [10]: 14.1% | viability, T/C [11]: 14.8% | viability, T/C [33]: 28.9% | viability, T/C [13]: 16.3% | viability, T/C [14]: 11.1% | viability, T/C [15]: 11.3% | viability, T/C [16]: 13.5% | viability, T/C [17]: 12.8% | viability, T/C [34]: 0.07% | viability, T/C [19]: 0.07% | viability, T/C [20]: 0.05% | viability, T/C [21]: 0.08% | viability, T/C [22]: 0.1% | viability, T/C [23]: 0.16% | viability, T/C [35]: 0.11% | viability, T/C [25]: 0.09% | viability, T/C [26]: 0.27% | viability, T/C [27]: 0.08% | viability, T/C [28]: 0.09% | viability, T/C [29]: 0.15%

CCN1CCN(Cc2ccc(Nc3ncc(F)c(-c4cc(F)c5nc(C)n(C(C)C)c5c4)n3)nc2)CC1 + CNCc1ccccc1-c1csc(C(C)Nc2nc(C)nc3cc(OC)c(OC)cc23)c1
IC50 (second compound 0.1 µM): 19.8 nM | IC50 (second compound 0.316 µM): 16.1 nM | IC50 (second compound 1 µM): 4.44 nM | IC50 (second compound 3.16 µM): < 3.16 nM | IC50 (second compound 10 µM): < 3.16 nM | viability, T/C [36]: 76.5% | viability, T/C [31]: 60.9% | viability, T/C [1]: 42% | viability, T/C [2]: 30.9% | viability, T/C [3]: 24.8% | viability, T/C [4]: 19.1% | viability, T/C [37]: 73.2% | viability, T/C [32]: 57.4% | viability, T/C [7]: 37.1% | viability, T/C [8]: 31.8% | viability, T/C [9]: 23.6% | viability, T/C [10]: 12.3% | viability, T/C [38]: 54.3% | viability, T/C [33]: 42.6% | viability, T/C [13]: 28.6% | viability, T/C [14]: 22.3% | viability, T/C [15]: 21.3% | viability, T/C [16]: 0.5% | viability, T/C [39]: 0.12% | viability, T/C [34]: 0.07% | viability, T/C [19]: 0.04% | viability, T/C [20]: 0.05% | viability, T/C [21]: 0.1% | viability, T/C [22]: 0.1% | viability, T/C [40]: 0.11% | viability, T/C [35]: 0.11% | viability, T/C [25]: 0.08% | viability, T/C [26]: 0.08% | viability, T/C [27]: 0.08% | viability, T/C [28]: 0.13%

Cn1ncnc1[C@H]1c2n[nH]c(=O)c3cc(F)cc(c23)N[C@@H]1c1ccc(F)cc1 + CNCc1ccccc1-c1csc(C(C)Nc2nc(C)nc3cc(OC)c(OC)cc23)c1
IC50 (second compound 0.1 µM): > 100 nM | IC50 (second compound 0.316 µM): > 100 nM | IC50 (second compound 1 µM): 24 nM | IC50 (second compound 3.16 µM): < 0.316 nM | IC50 (second compound 10 µM): < 0.316 nM | viability, T/C (second compound 0.1 µM, first compound 0.000316 µM): 87.7% | viability, T/C (second compound 0.1 µM, first compound 0.001 µM): 87.8% | viability, T/C [36]: 84.2% | viability, T/C [31]: 81.3% | viability, T/C [1]: 75.9% | viability, T/C [2]: 63.5% | viability, T/C (second compound 0.316 µM, first compound 0.000316 µM): 77.3% | viability, T/C (second compound 0.316 µM, first compound 0.001 µM): 84.3% | viability, T/C [37]: 79.9% | viability, T/C [32]: 69.2% | viability, T/C [7]: 65.5% | viability, T/C [8]: 56.9% | viability, T/C (second compound 1 µM, first compound 0.000316 µM): 57.3% | viability, T/C (second compound 1 µM, first compound 0.001 µM): 55.7% | viability, T/C [38]: 57.6% | viability, T/C [33]: 52.6% | viability, T/C [13]: 48.6% | viability, T/C [14]: 41.4% | viability, T/C (second compound 3.16 µM, first compound 0.000316 µM): 0.07% | viability, T/C (second compound 3.16 µM, first compound 0.001 µM): 0.08% | viability, T/C [39]: 0.08% | viability, T/C [34]: 0.07% | viability, T/C [19]: 0.08% | viability, T/C [20]: 0.13% | viability, T/C (second compound 10 µM, first compound 0.000316 µM): 0.08% | viability, T/C (second compound 10 µM, first compound 0.001 µM): 0.08% | viability, T/C [40]: 0.48% | viability, T/C [35]: 0.87% | viability, T/C [25]: 0.35% | viability, T/C [26]: 0.15%

Reference: PubChem BioAssay AID1963870 (Molecular Pharmacology Branch, DTP, NCI, 2024)
